According to the kinase profiling compilation of Christmann-Franck et al. (2016):
Values belong to the compound of their own block, whether it stands above or below them.

Legend:
Test in all cases: KINOMEscan competition binding
Conditions in all cases: compound 10.0 µM
AURKA (human) = AURKA (human) (UniProt O14965)
BRSK2 (human) = BRSK2 (human) (UniProt Q8IWQ3)
CAMK2A (human) = CAMK2A (human) (UniProt Q9UQM7)
CAMKK2 (human) = CAMKK2 (human) (UniProt Q96RR4)
CSNK1G1 (human) = CSNK1G1 (human) (UniProt Q9HCP0)
DAPK2 (human) = DAPK2 (human) (UniProt Q9UIK4)
DAPK3 (human) = DAPK3 (human) (UniProt O43293)
DCLK3 (human) = DCLK3 (human) (UniProt Q9C098)
EPHA4 (human) = EPHA4 (human) (UniProt P54764)
EPHB1 (human) = EPHB1 (human) (UniProt P54762)
ERBB3 (human) = ERBB3 (human) (UniProt P21860)
HCK (human) = HCK (human) (UniProt P08631)
IKBKE (human) = IKBKE (human) (UniProt Q14164)
IRAK3 (human) = IRAK3 (human) (UniProt Q9Y616)
KIT (human) = KIT (human) (UniProt P10721)
[1] = test system: KIT (human), P10721 [V559D]
LATS2 (human) = LATS2 (human) (UniProt Q9NRM7)
MAP3K10 (human) = MAP3K10 (human) (UniProt Q02779)
MAP3K15 (human) = MAP3K15 (human) (UniProt Q6ZN16)
MAP3K2 (human) = MAP3K2 (human) (UniProt Q9Y2U5)
MAPK11 (human) = MAPK11 (human) (UniProt Q15759)
MAPK7 (human) = MAPK7 (human) (UniProt Q13164)
[2] = test system: MET (human), P08581 [M1250T]
MINK1 (human) = MINK1 (human) (UniProt Q8N4C8)
MYLK2 (human) = MYLK2 (human) (UniProt Q9H1R3)
NEK9 (human) = NEK9 (human) (UniProt Q8TD19)
PDGFRB (human) = PDGFRB (human) (UniProt P09619)
PIK3CA (human) = PIK3CA (human) (UniProt P42336)
[3] = test system: PIK3CA (human), P42336 [H1047L]
PIK3CB (human) = PIK3CB (human) (UniProt P42338)
PIP5K1A (human) = PIP5K1A (human) (UniProt Q99755)
PRKX (human) = PRKX (human) (UniProt P51817)
PRPF4B (human) = PRPF4B (human) (UniProt Q13523)
RPS6KA5 KD1 (human) = RPS6KA5 KD1 (human) (UniProt O75582)
RPS6KA6 KD2 (human) = RPS6KA6 KD2 (human) (UniProt Q9UK32)
SBK1 (human) = SBK1 (human) (UniProt Q52WX2)
SRC (human) = SRC (human) (UniProt P12931)
STK11 (human) = STK11 (human) (UniProt Q15831)
STK17B (human) = STK17B (human) (UniProt O94768)
TGFBR1 (human) = TGFBR1 (human) (UniProt P36897)
TIE1 (human) = TIE1 (human) (UniProt P35590)
Sequence of TIE1 (human) (P35590 whole entry, looked up): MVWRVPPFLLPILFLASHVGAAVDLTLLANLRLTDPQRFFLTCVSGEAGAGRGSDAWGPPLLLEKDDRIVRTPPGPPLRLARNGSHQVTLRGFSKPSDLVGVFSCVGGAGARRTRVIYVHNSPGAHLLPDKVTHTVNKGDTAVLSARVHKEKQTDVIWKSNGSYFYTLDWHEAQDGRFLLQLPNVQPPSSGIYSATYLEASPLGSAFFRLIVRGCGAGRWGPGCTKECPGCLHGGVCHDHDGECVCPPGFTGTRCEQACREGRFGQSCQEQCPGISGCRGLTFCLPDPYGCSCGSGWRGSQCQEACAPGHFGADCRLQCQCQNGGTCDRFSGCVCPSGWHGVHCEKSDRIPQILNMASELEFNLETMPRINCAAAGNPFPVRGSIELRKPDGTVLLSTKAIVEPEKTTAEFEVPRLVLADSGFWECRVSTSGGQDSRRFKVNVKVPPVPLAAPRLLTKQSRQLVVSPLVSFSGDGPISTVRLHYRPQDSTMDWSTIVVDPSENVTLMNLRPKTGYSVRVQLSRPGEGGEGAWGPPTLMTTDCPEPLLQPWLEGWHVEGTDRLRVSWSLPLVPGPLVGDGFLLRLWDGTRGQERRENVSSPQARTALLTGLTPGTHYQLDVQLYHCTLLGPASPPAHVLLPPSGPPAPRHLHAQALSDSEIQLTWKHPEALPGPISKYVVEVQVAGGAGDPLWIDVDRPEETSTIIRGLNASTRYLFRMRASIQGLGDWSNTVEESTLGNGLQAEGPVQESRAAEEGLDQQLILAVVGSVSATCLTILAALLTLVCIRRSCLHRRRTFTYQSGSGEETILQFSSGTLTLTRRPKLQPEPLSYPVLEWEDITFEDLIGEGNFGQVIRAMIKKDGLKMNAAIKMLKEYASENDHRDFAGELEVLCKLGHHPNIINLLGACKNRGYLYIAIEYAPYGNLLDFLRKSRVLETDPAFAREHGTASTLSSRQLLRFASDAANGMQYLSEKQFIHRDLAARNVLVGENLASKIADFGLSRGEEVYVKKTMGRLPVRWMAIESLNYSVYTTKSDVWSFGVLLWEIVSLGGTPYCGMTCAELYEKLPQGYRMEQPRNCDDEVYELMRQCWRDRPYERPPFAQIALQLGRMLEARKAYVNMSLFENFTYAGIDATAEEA

Sequence of MAPK11 (human) (Q15759 whole entry, looked up): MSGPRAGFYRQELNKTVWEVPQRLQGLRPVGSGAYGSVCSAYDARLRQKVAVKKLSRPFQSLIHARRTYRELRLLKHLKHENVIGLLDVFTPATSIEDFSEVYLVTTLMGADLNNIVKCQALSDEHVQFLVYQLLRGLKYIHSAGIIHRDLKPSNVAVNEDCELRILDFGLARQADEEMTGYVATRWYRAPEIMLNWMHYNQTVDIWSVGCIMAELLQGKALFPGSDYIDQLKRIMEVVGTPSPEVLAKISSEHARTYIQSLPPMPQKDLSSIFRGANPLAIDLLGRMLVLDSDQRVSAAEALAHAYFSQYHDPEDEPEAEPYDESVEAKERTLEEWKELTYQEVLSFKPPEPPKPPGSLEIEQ
Sequence of DCLK3 (human) (Q9C098 whole entry, looked up): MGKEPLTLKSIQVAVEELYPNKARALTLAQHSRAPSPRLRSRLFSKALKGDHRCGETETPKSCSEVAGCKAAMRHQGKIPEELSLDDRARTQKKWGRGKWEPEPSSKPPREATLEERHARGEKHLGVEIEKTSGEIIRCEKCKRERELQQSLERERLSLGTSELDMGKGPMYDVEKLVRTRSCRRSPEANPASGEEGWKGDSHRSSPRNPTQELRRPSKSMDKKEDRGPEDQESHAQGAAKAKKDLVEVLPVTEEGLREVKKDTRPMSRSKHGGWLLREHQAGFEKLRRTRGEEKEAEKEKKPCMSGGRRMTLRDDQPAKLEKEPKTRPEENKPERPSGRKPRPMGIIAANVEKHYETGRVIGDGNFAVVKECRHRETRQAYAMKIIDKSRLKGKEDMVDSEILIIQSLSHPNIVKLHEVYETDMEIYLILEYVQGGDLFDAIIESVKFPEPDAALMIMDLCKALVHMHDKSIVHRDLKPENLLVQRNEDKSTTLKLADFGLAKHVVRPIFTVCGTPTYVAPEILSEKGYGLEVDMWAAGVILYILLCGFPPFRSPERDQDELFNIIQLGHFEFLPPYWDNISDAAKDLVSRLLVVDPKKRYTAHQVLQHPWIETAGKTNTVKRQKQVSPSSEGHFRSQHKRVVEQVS
Sequence of TGFBR1 (human) (P36897 whole entry, looked up): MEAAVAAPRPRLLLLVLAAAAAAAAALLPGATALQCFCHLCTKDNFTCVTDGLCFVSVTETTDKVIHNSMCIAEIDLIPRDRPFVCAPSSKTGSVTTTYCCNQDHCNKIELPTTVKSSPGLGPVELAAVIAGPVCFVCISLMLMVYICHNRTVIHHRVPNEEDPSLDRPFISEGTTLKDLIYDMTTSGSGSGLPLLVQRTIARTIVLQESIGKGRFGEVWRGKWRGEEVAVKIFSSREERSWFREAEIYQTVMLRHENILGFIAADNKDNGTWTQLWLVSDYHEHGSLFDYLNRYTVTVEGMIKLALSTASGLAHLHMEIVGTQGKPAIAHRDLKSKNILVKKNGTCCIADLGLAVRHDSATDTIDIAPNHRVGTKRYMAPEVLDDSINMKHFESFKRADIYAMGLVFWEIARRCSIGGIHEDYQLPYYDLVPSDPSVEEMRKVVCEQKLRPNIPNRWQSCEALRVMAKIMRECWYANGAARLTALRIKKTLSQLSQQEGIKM
Sequence of LATS2 (human) (Q9NRM7 whole entry, looked up): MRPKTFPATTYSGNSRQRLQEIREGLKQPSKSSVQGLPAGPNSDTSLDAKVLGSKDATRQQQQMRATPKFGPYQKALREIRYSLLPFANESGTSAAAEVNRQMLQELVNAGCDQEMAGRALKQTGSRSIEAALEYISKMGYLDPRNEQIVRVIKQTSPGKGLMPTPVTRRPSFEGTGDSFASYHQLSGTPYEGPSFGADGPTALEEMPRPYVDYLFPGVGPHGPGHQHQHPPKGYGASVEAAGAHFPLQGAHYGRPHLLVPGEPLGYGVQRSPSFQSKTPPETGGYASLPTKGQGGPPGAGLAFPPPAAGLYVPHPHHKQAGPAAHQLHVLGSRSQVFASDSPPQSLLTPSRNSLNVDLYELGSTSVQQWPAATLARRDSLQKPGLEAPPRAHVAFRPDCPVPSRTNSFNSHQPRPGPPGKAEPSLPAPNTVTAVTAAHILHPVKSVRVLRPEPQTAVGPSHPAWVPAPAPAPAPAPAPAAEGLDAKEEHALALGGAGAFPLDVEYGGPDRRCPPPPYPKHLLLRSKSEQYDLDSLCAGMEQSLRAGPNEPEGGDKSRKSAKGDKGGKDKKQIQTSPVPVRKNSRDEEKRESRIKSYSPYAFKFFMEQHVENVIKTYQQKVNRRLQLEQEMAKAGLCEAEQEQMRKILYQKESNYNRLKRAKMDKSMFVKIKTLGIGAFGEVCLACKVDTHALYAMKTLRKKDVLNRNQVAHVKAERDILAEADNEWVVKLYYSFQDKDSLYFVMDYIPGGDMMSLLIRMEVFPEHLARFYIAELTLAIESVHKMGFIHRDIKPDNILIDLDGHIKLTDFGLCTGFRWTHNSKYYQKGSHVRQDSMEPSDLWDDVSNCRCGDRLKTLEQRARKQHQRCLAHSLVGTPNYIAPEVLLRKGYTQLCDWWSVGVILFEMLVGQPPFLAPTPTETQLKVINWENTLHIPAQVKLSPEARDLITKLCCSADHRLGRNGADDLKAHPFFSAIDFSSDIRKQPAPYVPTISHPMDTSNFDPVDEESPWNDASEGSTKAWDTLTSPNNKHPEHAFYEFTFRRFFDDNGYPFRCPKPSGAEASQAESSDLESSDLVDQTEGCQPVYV
Sequence of CAMK2A (human) (Q9UQM7 whole entry, looked up): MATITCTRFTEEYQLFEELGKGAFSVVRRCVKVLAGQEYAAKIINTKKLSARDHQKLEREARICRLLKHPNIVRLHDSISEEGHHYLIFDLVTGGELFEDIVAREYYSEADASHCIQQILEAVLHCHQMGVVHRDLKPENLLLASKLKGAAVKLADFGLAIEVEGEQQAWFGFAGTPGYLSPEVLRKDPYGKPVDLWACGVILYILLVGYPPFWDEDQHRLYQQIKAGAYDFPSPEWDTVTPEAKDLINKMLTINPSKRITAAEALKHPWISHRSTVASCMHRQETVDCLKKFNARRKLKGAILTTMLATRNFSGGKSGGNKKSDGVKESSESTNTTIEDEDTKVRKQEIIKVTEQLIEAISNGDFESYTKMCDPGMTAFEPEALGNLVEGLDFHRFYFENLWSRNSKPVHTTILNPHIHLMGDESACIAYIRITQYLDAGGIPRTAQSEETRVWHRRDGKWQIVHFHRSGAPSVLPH
Sequence of SRC (human) (P12931 whole entry, looked up): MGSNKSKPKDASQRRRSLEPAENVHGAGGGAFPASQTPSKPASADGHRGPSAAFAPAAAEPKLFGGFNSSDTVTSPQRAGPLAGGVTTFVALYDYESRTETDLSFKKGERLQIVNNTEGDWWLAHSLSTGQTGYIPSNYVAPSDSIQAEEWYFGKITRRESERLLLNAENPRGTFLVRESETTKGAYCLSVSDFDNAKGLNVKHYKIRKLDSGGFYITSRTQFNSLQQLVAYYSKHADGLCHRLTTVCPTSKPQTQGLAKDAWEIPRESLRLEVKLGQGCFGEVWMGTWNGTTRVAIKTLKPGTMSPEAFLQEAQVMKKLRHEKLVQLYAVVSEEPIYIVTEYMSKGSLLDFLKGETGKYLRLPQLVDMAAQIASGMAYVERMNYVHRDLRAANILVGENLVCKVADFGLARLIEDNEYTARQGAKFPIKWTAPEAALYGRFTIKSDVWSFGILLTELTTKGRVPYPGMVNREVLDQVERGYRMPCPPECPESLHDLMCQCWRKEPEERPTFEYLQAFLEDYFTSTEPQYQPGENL

- kinase still bound, per cent of control (AURKA (human)): 20%
- kinase still bound, per cent of control (BRSK2 (human)): 1.1%
- kinase still bound, per cent of control (CAMK2A (human)): 0.8%
- kinase still bound, per cent of control (CAMKK2 (human)): 37%
- kinase still bound, per cent of control (CSNK1G1 (human)): 39%
- kinase still bound, per cent of control (DAPK2 (human)): 2.6%
- kinase still bound, per cent of control (DAPK3 (human)): 2.7%
- kinase still bound, per cent of control (DCLK3 (human)): 8%
- kinase still bound, per cent of control (EPHA4 (human)): 55%
- kinase still bound, per cent of control (EPHB1 (human)): 43%
- kinase still bound, per cent of control (ERBB3 (human)): 61%
- kinase still bound, per cent of control (HCK (human)): 1.2%
- kinase still bound, per cent of control (IKBKE (human)): 29%
- kinase still bound, per cent of control (IRAK3 (human)): 26%
- kinase still bound, per cent of control (KIT (human)): 0.05%
- kinase still bound, per cent of control [1]: 0%
- kinase still bound, per cent of control (LATS2 (human)): 60%
- kinase still bound, per cent of control (MAP3K10 (human)): 100%
- kinase still bound, per cent of control (MAP3K15 (human)): 43%
- kinase still bound, per cent of control (MAP3K2 (human)): 56%
- kinase still bound, per cent of control (MAPK11 (human)): 100%
- kinase still bound, per cent of control (MAPK7 (human)): 100%
- kinase still bound, per cent of control [2]: 87%
- kinase still bound, per cent of control (MINK1 (human)): 6.2%
- kinase still bound, per cent of control (MYLK2 (human)): 3%
- kinase still bound, per cent of control (PDGFRB (human)): 0%
- kinase still bound, per cent of control (PIK3CA (human)): 93%
- kinase still bound, per cent of control [3]: 100%
- kinase still bound, per cent of control (PIK3CB (human)): 88%
- kinase still bound, per cent of control (PIP5K1A (human)): 0%
- kinase still bound, per cent of control (PRKX (human)): 100%
- kinase still bound, per cent of control (PRPF4B (human)): 13%
- kinase still bound, per cent of control (RPS6KA5 KD1 (human)): 47%
- kinase still bound, per cent of control (RPS6KA6 KD2 (human)): 83%
- kinase still bound, per cent of control (SBK1 (human)): 61%
- kinase still bound, per cent of control (SRC (human)): 0.15%
- kinase still bound, per cent of control (STK11 (human)): 2.7%
- kinase still bound, per cent of control (STK17B (human)): 0%
- kinase still bound, per cent of control (TGFBR1 (human)): 83%
- kinase still bound, per cent of control (TIE1 (human)): 55%
SMILES: O=C1Nc2cc(Br)ccc2/C1=C1/Nc2ccccc2/C1=N\O
- kinase still bound, per cent of control (NEK9 (human)): 98%

- kinase still bound, per cent of control (AURKA (human)): 84%
- kinase still bound, per cent of control (BRSK2 (human)): 100%
- kinase still bound, per cent of control (CAMK2A (human)): 100%
- kinase still bound, per cent of control (CAMKK2 (human)): 100%
- kinase still bound, per cent of control (CSNK1G1 (human)): 66%
- kinase still bound, per cent of control (DAPK2 (human)): 93%
- kinase still bound, per cent of control (DAPK3 (human)): 81%
- kinase still bound, per cent of control (DCLK3 (human)): 66%
- kinase still bound, per cent of control (EPHA4 (human)): 100%
- kinase still bound, per cent of control (EPHB1 (human)): 85%
- kinase still bound, per cent of control (ERBB3 (human)): 73%
- kinase still bound, per cent of control (HCK (human)): 100%
- kinase still bound, per cent of control (IKBKE (human)): 88%
- kinase still bound, per cent of control (IRAK3 (human)): 100%
- kinase still bound, per cent of control (KIT (human)): 100%
- kinase still bound, per cent of control [1]: 3.6%
- kinase still bound, per cent of control (LATS2 (human)): 100%
- kinase still bound, per cent of control (MAP3K10 (human)): 87%
- kinase still bound, per cent of control (MAP3K15 (human)): 100%
- kinase still bound, per cent of control (MAP3K2 (human)): 96%
- kinase still bound, per cent of control (MAPK11 (human)): 100%
- kinase still bound, per cent of control (MAPK7 (human)): 97%
- kinase still bound, per cent of control [2]: 93%
- kinase still bound, per cent of control (MINK1 (human)): 86%
- kinase still bound, per cent of control (MYLK2 (human)): 93%
- kinase still bound, per cent of control (PDGFRB (human)): 88%
- kinase still bound, per cent of control (PIK3CA (human)): 100%
- kinase still bound, per cent of control [3]: 100%
- kinase still bound, per cent of control (PIK3CB (human)): 100%
- kinase still bound, per cent of control (PIP5K1A (human)): 70%
- kinase still bound, per cent of control (PRKX (human)): 42%
- kinase still bound, per cent of control (PRPF4B (human)): 100%
- kinase still bound, per cent of control (RPS6KA5 KD1 (human)): 100%
- kinase still bound, per cent of control (SBK1 (human)): 100%
- kinase still bound, per cent of control (SRC (human)): 78%
- kinase still bound, per cent of control (STK11 (human)): 83%
- kinase still bound, per cent of control (STK17B (human)): 74%
- kinase still bound, per cent of control (TGFBR1 (human)): 82%
- kinase still bound, per cent of control (TIE1 (human)): 100%
SMILES: COc1ccc(CNC(=O)Nc2ncc([N+](=O)[O-])s2)cc1
- kinase still bound, per cent of control (NEK9 (human)): 100%
